Among the data in paper PMC6268108, “Design, Practical Synthesis, and Biological Evaluation of Novel 6-(Pyrazolylmethyl)-4-quinoline-3-carboxylic Acid Derivatives as HIV-1 Integrase Inhibitors” (Molecules, 2012) are inhibition and melting point values, retold here.

The target of one data set is T1, HIV-1 integrase (Human immunodeficiency virus type 1 group M subtype B, UniProt P04585).
T1 construct: pre-incubated with 800 ng integrase at 37.8 °C in the reaction buffer
Put plainly: HIV-1 integrase strand transfer (ST) activity assay. The class given is biochemical. The note with it: 1 h; read-out: IC50 (inhibition of strand transfer). As to the method:
A HIV-1 integrase strand transfer (ST) activity assay was carried out to test the inhibition effectiveness of our compounds as described previously with some minor modifications. Compounds diluted in DMSO were pre-incubated with 800 ng integrase at 37.8 °C in the reaction buffer in the absence of Mn^2+ for 10 min. Subsequently, 1.5 pmol donor DNA and 9 pmol target DNA were added and the reaction was initiated by the addition of 10 mmol/L Mn^2+ into the final reaction volume. The reactions were carried out at 37.8 °C for 1 h and subsequent detection procedure was applied to detect the assay signals.

Regarding `Cc1cc(C)n(Cc2ccc3[nH]cc(C(=O)O)c(=O)c3c2)n1` [Compound 11a, 6-((3,5-Dimethyl-1H-pyrazol-1-yl)methyl)-4-oxo-1,4-dihydroquinoline-3-carboxylic acid], the melting point fell in the range of 254 to 256 °C. Besides, the inhibition at 100 µg/mL at HIV-1 integrase is less than 50%.
Taken in the same sequence, the figures for `Cc1nn(Cc2ccc3[nH]cc(C(=O)O)c(=O)c3c2)c(C)c1Cl` [Compound 11b, 6-((4-Chloro-3,5-dimethyl-1H-pyrazol-1-yl)methyl)-4-oxo-1,4-dihydroquinoline-3-carboxylic acid] were 263 to 265 °C and less than 50%.
Consider `Cc1nn(Cc2ccc3[nH]cc(C(=O)O)c(=O)c3c2)c(C)c1Br` [Compound 11c, 6-((4-Bromo-3,5-dimethyl-1H-pyrazol-1-yl)methyl)-4-oxo-1,4-dihydroquinoline-3-carboxylic acid], for which the melting point lay within 253 to 256 °C. Moreover, the inhibition at 100 µg/mL on HIV-1 integrase is less than 50%.
Taken in the same sequence, the figures for `Cc1cc(C)n(Cc2ccc3c(c2)c(=O)c(C(=O)O)cn3CC(O)CO)n1` (stereo not drawn) [Compound 12a, 1-(2,3-Dihydroxypropyl)-6-((3,5-dimethyl-1H-pyrazol-1-yl)methyl)-4-oxo-1,4-dihydroquinoline-3-carboxylic acid] were 187 to 189 °C and less than 50%.
Taken in the same sequence, the figures for `Cc1nn(Cc2ccc3c(c2)c(=O)c(C(=O)O)cn3CC(O)CO)c(C)c1Cl` (stereo not drawn) [Compound 12b, 1-(2,3-Dihydroxypropyl)-6-((4-chloro-3,5-dimethyl-1H-pyrazol-1-yl)methyl)-4-oxo-1,4-dihydro-quinoline-3-carboxylic acid] were 278 to 280 °C and less than 50%.
Taken in the same sequence, the figures for `Cc1nn(Cc2ccc3c(c2)c(=O)c(C(=O)O)cn3CC(O)CO)c(C)c1Br` (stereo not drawn) [Compound 12c, 1-(2,3-Dihydroxypropyl)-6-((4-bromo-3,5-dimethyl-1H-pyrazol-1-yl)methyl)-4-oxo-1,4-dihydroquino-line-3-carboxylic acid] were 267 to 269 °C and less than 50%.
With `Cc1cc(C)n(Cc2ccc3c(c2)c(=O)c(C(=O)O)cn3CC(=O)O)n1` [Compound 13a, 1-(Carboxymethyl)-6-((3,5-dimethyl-1H-pyrazol-1-yl)methyl)-4-oxo-1,4-dihydroquinoline-3-carboxylic acid], the melting point was more than 300 °C. Further, the inhibition at 100 µg/mL on HIV-1 integrase is less than 50%.
The like results for `Cc1nn(Cc2ccc3c(c2)c(=O)c(C(=O)O)cn3CC(=O)O)c(C)c1Cl` [Compound 13b, 1-(Carboxymethyl)-6-((4-chloro-3,5-dimethyl-1H-pyrazol-1-yl)methyl)-4-oxo-1,4-dihydroquinoline-3-carboxylic acid] were, in that order, 292 to 295 °C and less than 50%.
For the compound `Cc1nn(Cc2ccc3c(c2)c(=O)c(C(=O)O)cn3CC(=O)O)c(C)c1Br` [Compound 13c, 1-(Carboxymethyl)-6-((4-bromo-3,5-dimethyl-1H-pyrazol-1-yl)methyl)-4-oxo-1,4-dihydro-quinoline-3-carboxylic acid], the melting point lay within 278 to 280 °C. Moreover, the inhibition at 100 µg/mL on HIV-1 integrase is less than 50%.
For `Cc1cc(C)n(Cc2ccc3c(c2)c(=O)c(C(=O)O)cn3CCCS)n1` [Compound 14a, 1-(3-Mercaptopropyl)-6-((3,5-dimethyl-1H-pyrazol-1-yl)methyl)-4-oxo-1,4-dihydroquinoline-3-carboxylic acid], the melting point lay within 225 to 226 °C. Further, the inhibition at 100 µg/mL on HIV-1 integrase was less than 50%.
`Cc1nn(Cc2ccc3c(c2)c(=O)c(C(=O)O)cn3CCCS)c(C)c1Cl` [Compound 14b, 1-(3-Mercaptopropyl)-6-((4-chloro-3,5-dimethyl-1H-pyrazol-1-yl)methyl)-4-oxo-1,4-dihydro-quinoline-3-carboxylic acid] registered a melting point of 238 to 240 °C. For the same compound, on HIV-1 integrase, the inhibition at 100 µg/mL was less than 50%.
Taken in the same sequence, the figures for `Cc1nn(Cc2ccc3c(c2)c(=O)c(C(=O)O)cn3CCCS)c(C)c1Br` [Compound 14c, 6-((4-Bromo-3,5-dimethyl-1H-pyrazol-1-yl)methyl)-1-(3-mercaptopropyl)-4-oxo-1,4-dihydroquinoline-3-carboxylic acid] were 231 to 233 °C and less than 50%.
Take `Cc1cc(C)n(Cc2ccc3c(c2)c(=O)c(C(=O)O)cn3Cc2ccc(F)cc2)n1` [Compound 15a, 1-(4-Fluorobenzyl)-6-((3,5-dimethyl-1H-pyrazol-1-yl)methyl)-4-oxo-1,4-dihydro-quinoline-3-carboxylic acid]: the melting point was 271 to 273 °C. Further, on HIV-1 integrase, the inhibition at 100 µg/mL is less than 50%.
Taken in the same sequence, the figures for `Cc1nn(Cc2ccc3c(c2)c(=O)c(C(=O)O)cn3Cc2ccc(F)cc2)c(C)c1Cl` [Compound 15b, 1-(4-Fluorobenzyl)-6-((4-chloro-3,5-dimethyl-1H-pyrazol-1-yl)methyl)-4-oxo-1,4-dihydro-quinoline-3-carboxylic acid] were 239 to 241 °C and less than 50%.
`Cc1nn(Cc2ccc3c(c2)c(=O)c(C(=O)O)cn3Cc2ccc(F)cc2)c(C)c1Br` [Compound 15c, 1-(4-Fluorobenzyl)-6-((4-bromo-3,5-dimethyl-1H-pyrazol-1-yl)methyl)-4-oxo-1,4-dihydro-quinoline-3-carboxylic acid] yielded a melting point of 255 to 257 °C. In addition, the inhibition at 100 µg/mL on HIV-1 integrase is less than 50%.
Turning to `Cc1cc(C)n(Cc2ccc3c(c2)c(=O)c(C(=O)O)cn3Cc2ccc([N+](=O)[O-])cc2)n1` [Compound 16a, 1-(4-Nitrobenzyl)-6-((3,5-dimethyl-1H-pyrazol-1-yl)methyl)-4-oxo-1,4-dihydro-quinoline-3-carboxylic acid], the melting point was in the range of 274 to 276 °C. For the same compound, the inhibition at 100 µg/mL at HIV-1 integrase was less than 50%.
`Cc1nn(Cc2ccc3c(c2)c(=O)c(C(=O)O)cn3Cc2ccc([N+](=O)[O-])cc2)c(C)c1Cl` [Compound 16b, 1-(4-Nitrobenzyl)-6-((4-chloro-3,5-dimethyl-1H-pyrazol-1-yl)methyl)-4-oxo-1,4-dihydroquinoline-3-carboxylic acid] had a melting point of 282 to 284 °C. The inhibition at 100 µg/mL at HIV-1 integrase was less than 50%.
As to `Cc1nn(Cc2ccc3c(c2)c(=O)c(C(=O)O)cn3Cc2ccc([N+](=O)[O-])cc2)c(C)c1Br` [Compound 16c, 1-(4-Nitrobenzyl)-6-((4-bromo-3,5-dimethyl-1H-pyrazol-1-yl)methyl)-4-oxo-1,4dihydroquinoline-3-carboxylic acid], the melting point is 266 to 268 °C. Further, the inhibition at 100 µg/mL on HIV-1 integrase was less than 50%.
